Data: patent US9365574B2, “Soluble guanylate cyclase activators” (Merck Sharp & Dohme Corp., priority 2010, dated 2016)

Test system: Spontaneously hypertensive rats (SHR)
Assay: Acute Efficacy in Spontaneously Hypertensive Rats (SHR), telemetry blood pressure
Type: in vivo, rat
Conditions: single oral dose 0.1 mpk P.O.
Outline: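 Male SHR with aortic telemetry catheters, 14-day recovery, conscious and freely moving; single oral gavage in 10% transcutol/20% Cremophor/70% water. BP sampled 30 s every 10 min, hourly averages minus prior-day vehicle baseline; value is maximum peak SBP decrease at stated mg/kg PO dose.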

Row | Compound | Maximum peak decrease of systolic blood pressure (SBP) in SHR, Category
1 | CC1(c2nnc(C(F)F)o2)C(=O)Nc2nc(-c3nn(CCC(F)(F)C(F)(F)F)c4ncccc34)nc(N)c21 (stereo not shown) [Example 212, 4-amino-5-[5-(difluoromethyl)-1,3,4-oxadiazol-2-yl]-5-methyl-2-[1-(3,3,4,4.4-pentafluorobutyl)-1H-pyrazolo[3,4-b]pyridin-3-yl]-5,7-dihydro-6H-pyrrolo(2,3-d]pyrimidin-6-one] | B (Category B=SBP in SHRs 25-40 mmHg)
2 | CC1(C(N)=O)C(=O)Nc2nc(-c3nn(CCC(F)(F)C(F)(F)F)c4nc(Cl)ccc34)nc(N)c21 (stereo not shown) [Example 214, 4-amino-2-[6-chloro-1-(3,3,4,4,4-pentafluorobutyl)-1H-pyrazolo[3,4-b]pyridin-3-yl]-5-methyl-6-oxo-6,7-dihydro-5H-pyrrolo[2,3-d]pyrimidine-5-carboxamide] | A (Category A=SBP in SHRs<25 mmHg)
3 | CC1(c2nnc(CC(F)(F)F)o2)C(=O)Nc2nc(-c3nn(CCC(F)(F)C(F)(F)F)c4ncccc34)nc(N)c21 (stereo not shown) [Example 216, 4-amino-5-methyl-2-[1-(3,3,4,4,4-pentafluorobutyl)-1H-pyrazolo[3,4-b]pyridin-3-yl]-5-[5-(2,2,2-trifluoroethyl)-1,3,4-oxadiazol-2-yl]-5,7-dihydro-6H-pyrrolo[2,3-d]pyrimidin-6-one] | A (Category A=SBP in SHRs<25 mmHg)

Same assay, conditions: single oral dose 0.3 mpk P.O.

Row | Compound | Maximum peak decrease of systolic blood pressure (SBP) in SHR, Category
4 | CC1(C(=O)NC2CC2)C(=O)Nc2nc(-c3nn(CCOC(F)(F)F)c4ncccc34)nc(N)c21 (stereo not shown) [Example 200, 4-amino-N-cyclopropyl-5-methyl-6-oxo-2-{1-[2-(trifluoromethoxy)ethyl]-1H-pyrazolo[3,4-6]pyridin-3-yl}-6,7-dihydro-5H-pyrrolo[2,3-d]pyrimidine-5-carboxamide] | C (Category C=SBP in SHRs>40 mmHg)
5 | CC1(N)C(=O)Nc2nc(-c3nn(CCC(F)(F)C(F)(F)F)c4cc(Cl)ccc34)nc(N)c21 (stereo not shown) [Example 201, 4,5-diamino-2-[6-chloro-1-(3,3,4,4,4-pentafluorobutyl)-1H-indazol-3-yl]-5-methyl-5,7-dihydro-6H-pyrrolo[2,3-d]pyrimidin-6-one] | A (Category A=SBP in SHRs<25 mmHg)
6 | CC1(NCC2CC2)C(=O)Nc2nc(-c3nn(CCC(F)(F)C(F)(F)F)c4cc(Cl)ccc34)nc(N)c21 (stereo not shown) [Example 202, 4-amino-2-[6-chloro-1-(3,3,4,4,4-pentafluorobutyl)-1H-indazol-3-yl)-5-[(cyclopropylmethyl)amino]-5-methyl-5,7-dihydro-6H-pyrrolo[2,3-d]pyrimidin-6-one] | C (Category C=SBP in SHRs>40 mmHg)
7 | CC1(c2nnc(C(F)(F)F)o2)C(=O)Nc2nc(-c3nn(CCC(F)(F)C(F)(F)F)c4ccncc34)nc(N)c21 (stereo not shown) [Example 203, 4-amino-5-methyl-2-[1-(3,3,4,4,4-pentafluorobutyl)-1H-pyrazolo[3,4-d]pyridin-3-yl]-5-[5-(trifluoromethyl)-1,3,4-oxadiazol-2-yl)-5,7-dihydro-6H-pyrrolo[2,3-d]pyrimidin-6-one] | C (Category C=SBP in SHRs>40 mmHg)
8 | CC1(c2nnco2)C(=O)Nc2nc(-c3nn(CCC(F)(F)C(F)(F)F)c4ncccc34)nc(N)c21 (stereo not shown) [Example 204, 4-amino-5-methyl-5-(1,3,4-oxadiazol-2-yl)-2-[1-(3,3,4,4,4-pentafluorobutyl)-1H-pyrazolo[3,4-b]pyridin-3-yl]-5,7-dihydro-6H-pyrrolo[2,3-d]pyrimidin-6-one] | B (Category B=SBP in SHRs 25-40 mmHg)
9 | Cc1nc(C2(C)C(=O)Nc3nc(-c4nn(CCC(F)(F)C(F)(F)F)c5ncccc45)nc(N)c32)sc1C (stereo not shown) [Example 206, 4-amino-5-(4,5-dimethyl-1,3-thiazol-2-yl)-5-methyl-2-[1-(3,3,4,4,4-pentafluorobutyl)-1H-pyrazolo[3,4-b]pyridin-3-yl]-5,7-dihydro-6H-pyrrolo[2,3-d]pyrimidin-6-one] | C (Category C=SBP in SHRs>40 mmHg)
10 | CC1(c2nc(C(F)(F)F)no2)C(=O)Nc2nc(-c3nn(CCC(F)(F)C(F)(F)F)c4ncccc34)nc(N)c21 (stereo not shown) [Example 207, 4-amino-5-methyl-2-[1-(3,3,4,4,4-pentafluorobutyl)-1H-pyrazolo[3,4-b]pyridin-3-yl]-5-[3-(trifluoromethyl)-1,2,4-oxadiazol-5-yl]-5,7-dihydro-6H-pyrrolo[2,3-d]pyrimidin-6-one] | C (Category C=SBP in SHRs>40 mmHg)
11 | Cn1ccc(NC(=O)C2(C)C(=O)Nc3nc(-c4nn(CCOC(F)(F)F)c5ncccc45)nc(N)c32)n1 (stereo not shown) [Example 210, 4-amino-5-methyl-N-(1-methyl-1H-pyrazol-3-yl)-6-oxo-2-{1-[2-(trifluoromethoxy)ethyl]-1H-pyrazolo[3,4-b]pyridin-3-yl}-6,7-dihydro-5H-pyrrolo[2,3-d]pyrimidine-5-carboxamide] | B (Category B=SBP in SHRs 25-40 mmHg)
12 | CCc1nnc(C2(C)C(=O)Nc3nc(-c4nn(CCC(F)(F)C(F)(F)F)c5ncccc45)nc(N)c32)o1 (stereo not shown) [Example 211, 4-amino-5-(5-ethyl-1,3,4-oxadiazol-2-yl)-5-methyl-2-[1-(3,3,4,4,4-pentafluorobutyl)-1H-pyrazolo[3,4-b]pyridin-3-yl]-5,7-dihydro-6H-pyrrolo[2,3-d]pyrimidin-6-one] | C (Category C=SBP in SHRs>40 mmHg)
13 | CC(C)c1nnc(C2(C)C(=O)Nc3nc(-c4nn(CCC(F)(F)C(F)(F)F)c5ncccc45)nc(N)c32)o1 (stereo not shown) [Example 213, 4-amino-5-methyl-5-[5-(1-methylethyl)-1,3,4-oxadiazol-2-yl]-2-[1-(3,3,4,4,4-pentafluorobutyl)-1H-pyrazolo[3,4-b]pyridin-3-yl]-5,7-dihydro-6H-pyrrolo[2,3-d]pyrimidin-6-one] | C (Category C=SBP in SHRs>40 mmHg)
14 | Cn1cc(NC(=O)C2(C)C(=O)Nc3nc(-c4nn(CCOC(F)(F)F)c5ncccc45)nc(N)c32)cn1 (stereo not shown) [Example 215, 4-amino-5-methyl-N-(1-methyl-1H-pyrazol-4-yl)-6-oxo-2-{1-[2-(trifluoromethoxy)ethyl]-1H-pyrazolo[3,4-b]pyridin-3-yl}-6,7-dihydro-5H-pyrrolo[2,3-d]pyrimidine-5-carboxamide] | B (Category B=SBP in SHRs 25-40 mmHg)
15 | Cn1cc(NC(=O)C2(C)C(=O)Nc3nc(-c4nn(CCC(F)(F)C(F)(F)F)c5cc(Cl)ccc45)nc(N)c32)cn1 (stereo not shown) [Example 217, 4-amino-2-[6-chloro-1-(3,3,4,4,4-pentafluorobutyl)-1H-indazol-3-yl]-5-methyl-N-(1-methyl-1H-pyrazol-4-yl)-6-oxo-6,7-dihydro-5H-pyrrolo[2,3-d]pyrimidine-5-carboxamide] | C (Category C=SBP in SHRs>40 mmHg)
16 | C#CC1(C)C(=O)Nc2nc(-c3nn(CCC(F)(F)C(F)(F)F)c4ncccc34)nc(N)c21 (stereo not shown) [Example 219, 4-amino-5-ethynyl-5-methyl-2-[1-(3,3,4,4,4-pentafluorobutyl)-1H-pyrazolo[3,4-b]pyridin-3-yl]-5,7-dihydro-6H-pyrrolo[2,3-d]pyrimidin-6-one] | C (Category C=SBP in SHRs>40 mmHg)

Same assay, conditions: single oral dose 1 mpk P.O.

Row | Compound | Maximum peak decrease of systolic blood pressure (SBP) in SHR, Category
17 | CC1(C(N)=S)C(=O)Nc2nc(-c3nn(CCC(F)(F)C(F)(F)F)c4ncccc34)nc(N)c21 (stereo not shown) [Example 205, 4-amino-5-methyl-6-oxo-2-[1-(3,3,4,4,4-pentafluorobutyl)-1H-pyrazolo[3,4-6]pyridin-3-yl]-6,7-dihydro-5H-pyrrolo[2,3-d]pyrimidine-5-carbothioamide] | C (Category C=SBP in SHRs>40 mmHg)
18 | CC1(CC(=O)NC2CC2)C(=O)Nc2nc(-c3nn(CCC(F)(F)C(F)(F)F)c4cc(Cl)ccc34)nc(N)c21 (stereo not shown) [Example 208, 2-{4-amino-2-[6-chloro-1-(3,3,4,4,4-pentafluorobutyl)-1H-indazol-3-yl]-5-methyl-6-oxo-6,7-dihydro-5H-pyrrolo[2,3-d]pyrimidin-5-yl}-N-cyclopropylacetamide] | A (Category A=SBP in SHRs<25 mmHg)
19 | CC1(C(=O)Nc2ccccn2)C(=O)Nc2nc(-c3nn(CCOC(F)(F)F)c4ncccc34)nc(N)c21 (stereo not shown) [Example 209, 4-amino-5-methyl-6-oxo-N-pyridin-2-yl-2-{1-[2-(trifluoromethoxy)ethyl]-1H-pyrazolo[3,4-b]pyridin-3-yl}-6,7-dihydro-5H-pyrrolo[2,3-d]pyrimidine-5-carboxamide] | B (Category B=SBP in SHRs 25-40 mmHg)
20 | Cn1ccc(NC(=O)C2(C)C(=O)Nc3nc(-c4nn(CCC(F)(F)C(F)(F)F)c5ncccc45)nc(N)c32)n1 (stereo not shown) [Example 218, 4-amino-5-methyl-N-(1-methyl-1H-pyrazol-3-yl)-6-oxo-2-[1-(3,3,4,4,4-pentafluorobutyl)-1H-pyrazolo[3,4-b]pyridin-3-yl]-6,7-dihydro-5H-pyrrolo[2,3-d]pyrimidine-5-carboxamide] | C (Category C=SBP in SHRs>40 mmHg)
21 | COc1ccc2c(-c3nc(N)c4c(n3)NC(=O)C4(C)C(N)=O)nn(CCC(F)(F)C(F)(F)F)c2n1 (stereo not shown) [Example 220, 4-amino-2-[6-methoxy-1-(3,3,4,4,4-pentafluorobutyl)-1H-pyrazolo[3,4-b]pyridin-3-yl]-5-methyl-6-oxo-6,7-dihydro-5H-pyrrolo[2,3-d]pyrimidine-5-carboxamide] | B (Category B=SBP in SHRs 25-40 mmHg)
22 | CC1(C(=O)NC2CC2)C(=O)Nc2nc(-c3nn(CCC(F)(F)F)c4nc(C#N)ccc34)nc(N)c21 (stereo not shown) [Example 221, 4-amino-2-[6-cyano-1-(3,3,3-trifluoropropyl)-1H-pyrazolo[3,4-b]pyridin-3-yl]-N-cyclopropyl-5-methyl-6-oxo-6,7-dihydro-5H-pyrrolo[2,3-d]pyrimidine-5-carboxamide] | C (Category C=SBP in SHRs>40 mmHg)
